Experimental data taken from PMC10367051, “Comprehensive Mechanistic View of the Hydrolysis of Oxadiazole-Based Inhibitors by Histone Deacetylase 6 (HDAC6)” (ACS Chemical Biology, 2023).

Tests used:
HDAC6 = target: T1, HDAC6 (Homo sapiens, UniProt Q9UBN7); experiment: Fluorometric HDAC inhibition assay, HDAC6; assay type: biochemical; settings: purified human protein; Ac-Gly-Ala-[Lys-Ac]-AMC substrate 10 μM; 15 min preincubation
T1 construct: TwinStrep-FLAG-HALO (N, cleaved yes); made in house; host or cells: HEK293/T17
T1 sequence (Q9UBN7 1-1215): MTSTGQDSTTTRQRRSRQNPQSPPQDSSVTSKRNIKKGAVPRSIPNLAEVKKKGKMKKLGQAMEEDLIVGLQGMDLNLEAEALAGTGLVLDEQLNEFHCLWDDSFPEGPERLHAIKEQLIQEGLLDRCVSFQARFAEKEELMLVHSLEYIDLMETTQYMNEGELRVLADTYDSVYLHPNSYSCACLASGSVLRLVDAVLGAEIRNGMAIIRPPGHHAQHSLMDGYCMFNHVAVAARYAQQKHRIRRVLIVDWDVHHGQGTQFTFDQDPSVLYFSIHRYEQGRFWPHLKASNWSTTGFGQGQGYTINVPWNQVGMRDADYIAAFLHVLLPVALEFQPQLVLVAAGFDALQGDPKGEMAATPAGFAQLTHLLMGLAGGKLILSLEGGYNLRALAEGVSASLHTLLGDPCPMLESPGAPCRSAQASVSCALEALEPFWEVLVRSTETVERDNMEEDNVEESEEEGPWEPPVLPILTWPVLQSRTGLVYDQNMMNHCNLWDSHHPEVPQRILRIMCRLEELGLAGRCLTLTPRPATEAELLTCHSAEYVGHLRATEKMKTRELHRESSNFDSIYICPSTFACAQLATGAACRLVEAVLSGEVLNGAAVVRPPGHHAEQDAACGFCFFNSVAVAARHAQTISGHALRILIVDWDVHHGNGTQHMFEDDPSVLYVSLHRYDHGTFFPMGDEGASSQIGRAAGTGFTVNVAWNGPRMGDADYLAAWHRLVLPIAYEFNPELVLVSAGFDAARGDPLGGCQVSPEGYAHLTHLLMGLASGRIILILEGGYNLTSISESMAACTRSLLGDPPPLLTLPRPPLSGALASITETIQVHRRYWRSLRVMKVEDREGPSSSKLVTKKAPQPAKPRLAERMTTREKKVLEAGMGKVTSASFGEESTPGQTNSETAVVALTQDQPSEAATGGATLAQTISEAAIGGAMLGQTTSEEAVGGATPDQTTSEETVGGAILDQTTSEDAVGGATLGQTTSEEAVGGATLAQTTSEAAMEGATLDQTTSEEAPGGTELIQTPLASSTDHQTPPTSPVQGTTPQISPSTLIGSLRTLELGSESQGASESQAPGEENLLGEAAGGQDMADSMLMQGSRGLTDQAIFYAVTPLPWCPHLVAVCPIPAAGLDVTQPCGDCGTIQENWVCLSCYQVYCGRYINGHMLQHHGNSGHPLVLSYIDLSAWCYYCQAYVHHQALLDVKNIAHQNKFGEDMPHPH
Method: Large-scale expression of recombinant human HDACs was carried out as described previously.[32],[37] Briefly, HEK293/T17 cells were transiently transfected with expression pMM222 plasmids comprising N-terminally tagged (TwinStrep-FLAG-HALO tag; Figure S1) HDAC genes using linear poly(ethyleneimine) (PEI, Polysciences Inc.). Cells were harvested three days post-transfection, and cell pellets were resuspended in the lysis buffer (100 mM Tris-HCl, 10 mM NaCl, 5 mM KCl, 2 mM MgCl2, and 10% glycerol at pH 8.0). Cells were disrupted by sonication, cell lysates were cleared by centrifugation, and soluble fusion proteins were first purified by Streptactin affinity chromatography (IBA). For all HDACs but HDACs 1, 10, and 11, the N-terminal tag was cleaved off overnight by the addition of TEV protease (10:1 HDAC/TEV ratio). Size-exclusion chromatography on a Superose 6 column (GE Healthcare Bio-Sciences; running buffer 30 mM HEPES, 140 mM NaCl, 10 mM KCl, 3% glycerol, and 0.25 mM TCEP) was used as the final purification step for all HDAC constructs.
(§1) Optimized fluorometric assays were used to determine inhibition constants of studied compounds against individual HDAC isoforms as described previously.[32] Briefly, reactions were performed in the activity buffer comprising 50 mM HEPES, 140 mM NaCl, and 10 mM KCl at pH 7.4 supplemented with 1 mg mL^–1 bovine serum albumin (BSA), 1 mM tris(2-carboxyethyl)phosphine (TCEP), 10 μM substrates, and optimized concentrations of HDACs. The Ac-Gly-Ala-[Lys-Ac]-7-amino-methylcoumarylamide (AMC) substrate was used to profile HDACs 1, 2, 3, and 6; Boc-[Lys-TFA]-7-amino-methylcoumarylamide was used for HDACs 4, 5, 7, 8, and 9 (both substrates: Bachem); fluorescein-labeled N8-acetylspermidine was used for HDAC10;[32] and an internally quenched TNFα-derived peptide derivative was used for HDAC11.[39] Deacetylation reactions were monitored either by high-performance liquid chromatography (HPLC) (HDAC10) or by quantification of released AMC (λex/λem = 365/440 nm) using a CLARIOstar plate reader (BMG Labtech GmbH).

zHDAC6 (Y745F) = target: T2, zHDAC6 (Y745F) (Danio rerio, UniProt F8W4B7, Y745F); experiment: Inhibition assay, zebrafish HDAC6 catalytic DD2 domain, Y745F mutant; assay type: biochemical
T2 construct: Danio rerio HDAC6 (amino acids 440–798; zHDAC6); His (N, cleaved yes); MBP (N, cleaved yes); made in house; host or cells: RIPL Escherichia coli
T2 sequence (F8W4B7 440-798 Y745F): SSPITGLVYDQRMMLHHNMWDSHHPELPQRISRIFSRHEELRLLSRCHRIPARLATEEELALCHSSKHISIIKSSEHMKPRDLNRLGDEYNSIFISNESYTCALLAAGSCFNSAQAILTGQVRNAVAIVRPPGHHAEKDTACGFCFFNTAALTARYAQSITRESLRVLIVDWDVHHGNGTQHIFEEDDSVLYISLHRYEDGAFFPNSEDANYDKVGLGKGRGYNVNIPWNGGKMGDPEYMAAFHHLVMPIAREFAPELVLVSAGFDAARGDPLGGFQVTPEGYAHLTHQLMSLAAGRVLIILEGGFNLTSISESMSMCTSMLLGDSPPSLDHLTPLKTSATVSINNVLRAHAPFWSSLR
Method: The second catalytic domain of Danio rerio HDAC6 (amino acids 440–798; zHDAC6) was expressed in RIPL Escherichia coli as described previously using the pEC566-zHDAC6 expression vector.[16],[38] Briefly, bacteria were incubated at 37 °C with shaking (250 rpm) until the optical density reached an OD600 = 0.5. Then, the culture was cooled to 18 °C for 1 h, and recombinant protein expression was induced by the addition of 75 μM isopropyl β-D-1-thiogalactopyranoside together with 200 μM ZnSO4. The culture was grown at 18 °C for an additional 18 h and harvested by centrifugation at 5500g for 15 min. The cell pellet was resuspended in the lysis buffer (50 mM phosphate, 300 mM NaCl, 10% glycerol, and 20 mM imidazole at pH 8; 5 mL g^–1 bacterial pellet) and lysed by three passages through EmulsiFlex (Avestin). Cell lysates were centrifuged (15,000g at 4 °C for 20 min), and the fusion protein in the supernatant was purified via Ni-NTA chromatography. Fractions containing the His-MBP-HDAC6 fusion were concentrated to 2 mg mL^–1 and cleaved overnight by the addition of TEV protease (zHDAC6/TEV 1:20 ratio). The cleaved tag and the TEV protease were sequentially removed using amylose (New England Biolabs) and HisTrap columns (Cytiva), and zHDAC6 was further purified by size-exclusion chromatography on a HiLoad Superdex 75 pg column (GE Healthcare Bio-Sciences). Fractions containing zHDAC6 were pooled, concentrated to 10 mg mL^–1, flash-frozen in liquid nitrogen, and stored at −80 °C. The purity of protein preparations was monitored by SDS-PAGE (Figure S2).
The zHDAC6 mutants (Y745F and H574A) were constructed using the Quick-change site-directed mutagenesis protocol with the pEC566-zHDAC6 expression plasmid as a template. Both mutants were expressed and purified as described above for wild-type zHDAC6 (Figure S2).
as §1

| IC50 (HDAC6) | IC50 (zHDAC6 (Y745F)) | Compound |
| --- | --- | --- |
| 0.085 ± 0.0028 µM | > 20 µM | CS(=O)(=O)N(Cc1ccc(-c2nnc(CF)o2)cn1)c1cccc(Cl)c1 [compound 9] |
| > 100 µM |  | Cc1nnc(-c2ccc(CN(c3cccc(Cl)c3)S(C)(=O)=O)nc2)o1 [compound 10] |
